From patent publication US10550383B2, “Galvanotaxis assay for quantitative assessment of the metastatic potential of cancer cells” (Ohio State Innovation Foundation, priority 2013, dated 2020)

Key:
Format in all cases: cell-based, human
[1] = test system: SCP2 cells; assay: modified transmembrane assay, chemotaxis of SCP2 cells; settings: 100 ng/mL in lower chamber, 8 hours, no induced electric field; Control vs SDF control p=0.015, Control vs EGF control p=0.001 (FIG. 4)
Method: Highly metastatic breast cancer cells known as SCP2, a single cell population derived from MDA-MB-231 that is known to metastasize to the bone, were cultured in Dulbecco's Modified Eagle Medium (DMEM; Life Technologies, Gaithersburg, Md., USA), supplemented with 10% heat inactivated fetal bovine serum (FBS), 5 U/mL penicillin, and 5 mg/mL streptomycin. The SCP2 cells were placed in the upper chamber, and both compartments contained 0.1% FBS-DM. The entire apparatus (holder, coil, modified transmembrane chambers with Transwell inserts and cells) was placed in a 37° C. culture incubator with humidified air containing 5% CO2. The leads of the coil were connected to the function generator placed outside the incubator. The cells were allowed to migrate for 8 hours, and then were fixed and stained using Hema-3 stain kit according to the manufacturer's instructions. The number of migratory cells per membrane was then measured using light microscopy by counting the total number of cells in each of five contiguous images spanning radially outward (five fields) from the coil (FIG. 9). […]
In one embodiment, low passage SCP2 cells were cultured in Dulbecco's Modified Eagle's Media (DMEM) containing 10% fetal bovine serum (FBS) and 5 U/mL penicillin, and 5 mg/mL streptomycin at 37° C. in a humidified culture incubator supplied with 5% CO2. […] The cells were counted using a hemocytometer. […]

[2] = test system: MCF-10A cells; assay: modified transmembrane assay, migration of MCF-10A cells; settings: 50 ng/mL EGF in lower chamber, 16 hours, no induced electric field (-E+EGF, FIG. 22)
Method: Weak a.c. electric fields hinder chemotaxis of “normal” breast epithelial cells. Experiments on combined chemotaxis and electrotaxis were performed with MCF10A cells in the same modified transmembrane assay in order to examine the effects of the induced a.c. electric field in hindering chemotaxis of non-transformed cells. MCF-10A cells are a non-transformed epithelial cell line derived from human fibrocystic mammary tissue. These cells are considered “normal” breast epithelial cells as they have a karyotype that is nearly diploid, are dependent on externally supplied growth factors for migration, and lack the ability to form tumors in nude mice. The growth factor EGF was used as an exogenous agent to induce MCF-10A cells to migrate in the modified transmembrane assay, as in the case of the SCP2 cells. No migration of MCF-10A cells was observed without EGF in the bottom chamber. […]
In one embodiment, MCF10A cells were cultured in Dulbecco's Modified Eagle's Media (DMEM) F12 containing 5% horse serum (HS), 20 ng/ml epidermal growth factor (EGF), 0.5 mg/ml hydrocortisone, 100 ng/ml cholrea toxin, 10 μg/ml insulin and 5 U/mL penicillin, and 5 mg/mL streptomycin at 37° C. in a humidified culture incubator supplied with 5% CO2. […] After allowing migration for 16 hours, cells were stained, photographed and counted as described for the preparation of the SCP2 cells. […]

[3] = test system: SCP2 cells; assay: visualization of actin filaments by phalloidin staining and fluorescence microscopy; settings: EGF 100 ng/mL, one hour, no induced electric field (FIG. 6a middle panel)
Method: The present invention allows the visualization of actin filaments that form the cytoskeleton of the SCP2 cells and play a crucial role in cell migration, when induced electric fields are applied in a non-contact manner as described earlier (FIG. 6). The images are quantified to determine the actin filament distribution within the cell as represented by the fluorescence intensity. In one embodiment, SCP2 cells are plated on a single-well, 60 mm diameter culture plate, allowed to migrate freely for an hour, and then fixed and stained with phalloidin-fluorophore conjugate for visualization of the actin filaments (FIG. 6a, left panel). […] These images have also been quantified after importing into MATLAB (FIGS. 18-20). […]
Analysis of actin filament distribution: images obtained from phalloidin and fluorescence microscopy are imported into MATLAB (2014a, Mathworks, Inc., Massachusetts, U.S.A.). […] Intensities are then separated into red, green, and blue so that the background and nuclei intensities may be filtered out and only the green fluorescence from the actin filaments is extracted. Actin fluorescence intensities are analyzed versus cell length (longer dimension being the length), and averaged.

| Substance | migration of SCP2 cells (chemotaxis) versus control [1] | migration of MCF-10A cells [2] | actin filament polymerization in SCP2 cells [3] |
| --- | --- | --- | --- |
| EGF: growth factor placed in the lower chamber to induce cell migration | chemotaxis is well enabled | strongly promotes migration | polymerization of actin filaments can be observed at one end of some cells |
| SDF-1α | chemotaxis is well enabled |  |  |
